Reference: ChEMBL document CHEMBL1201862, “PubChem BioAssay data set” (2004)
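Protocol summary: plate cells (96-well), add compound at 5 concentrations, incubate 48 h, interpolate endpoints linearly. GI50 is the concentration that inhibits growth by half.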 Active and inactive are the calls of the source. No stated cut-off is given here; in the data, active = GI50 up to about 1.1 µM and inactive = higher.

Key:
Assay in all cases: NCI tumour cell line growth inhibition, 48 h
[1] = tested on: SW-620
[2] = tested on: HCT-116
[3] = tested on: OVCAR-5
[4] = tested on: Malme-3M
[5] = tested on: SNB-19
[6] = tested on: EKVX
[7] = tested on: HCT-15
[8] = tested on: A549
[9] = tested on: U-251
[10] = tested on: DU-145
[11] = tested on: CCRF-CEM
[12] = tested on: MDA-MB-231
[13] = tested on: NCI-H226
[14] = tested on: TK-10
[15] = tested on: OVCAR-8
[16] = tested on: T47D
[17] = tested on: SNB-75
[18] = tested on: LOX IMVI
[19] = tested on: UO-31
[20] = tested on: A498

Row | SMILES | GI50 [1] | GI50 [2] | GI50 [3] | GI50 [4] | GI50 [5] | GI50 [6] | GI50 [7] [µM] | GI50 [8] | GI50 [9] | GI50 [10] | GI50 [11] | GI50 [12] | GI50 [13] | GI50 [14] | GI50 [15] | GI50 [16] | GI50 [17] | GI50 [18] | GI50 [19] | GI50 [20]
1 | CC(C)C(C/C=C1\CC(CO)(COC(=O)CC(C(C)C)C(C)C)OC1=O)C(C)C (stereo not given) | 7.46 µM (inactive) | 14.1 µM (inactive) | 13.9 µM (inactive) | 1.45 µM (inactive) | 13.3 µM (inactive) | 10 µM (inactive) | 18.5 | 3.72 µM (inactive) | 13.8 µM (inactive) | 8.85 µM (inactive) | 4.06 µM (inactive) | 12.8 µM (inactive) | 9.04 µM (inactive) | 7.31 µM (inactive) | 17.9 µM (inactive) | 13.3 µM (inactive) | 10.4 µM (inactive) | 12.6 µM (inactive) | 6.87 µM (inactive) | 11.7 µM (inactive)
2 | CN(C)CCn1c(CO)nc2c1c(=O)n(C)c(=O)n2C | > 100 µM (inactive) | > 100 µM (inactive) | > 100 µM (inactive) | > 100 µM (inactive) | > 100 µM (inactive) | > 100 µM (inactive) | > 100 | > 100 µM (inactive) | > 100 µM (inactive) | > 100 µM (inactive) | > 100 µM (inactive) | > 100 µM (inactive) | > 100 µM (inactive) | > 100 µM (inactive) | > 100 µM (inactive) | > 100 µM (inactive) | > 100 µM (inactive) | > 100 µM (inactive) | > 100 µM (inactive) | > 100 µM (inactive)
3 | C/C=C(/COC(C)=O)C(=O)OC1C=C(C=O)C(C)(C)C=C1C (stereo not given) | > 100 µM (inactive) | > 100 µM (inactive) | > 100 µM (inactive) | > 100 µM (inactive) | > 100 µM (inactive) | > 100 µM (inactive) | > 100 | > 100 µM (inactive) | > 100 µM (inactive) | > 100 µM (inactive) | 37.7 µM (inactive) | > 100 µM (inactive) | > 100 µM (inactive) | > 100 µM (inactive) | > 100 µM (inactive) | > 100 µM (inactive) | 43.6 µM (inactive) | > 100 µM (inactive) | > 100 µM (inactive) | > 100 µM (inactive)
4 | COc1ccc2nc3ccc(OC)cc3c(SCCO)c2c1 | 28.4 µM (inactive) | 15.8 µM (inactive) | > 100 µM (inactive) | 15.6 µM (inactive) | > 59.7 µM (inactive) | 31.7 µM (inactive) | 27.4 | > 78.7 µM (inactive) | 65 µM (inactive) | 5.65 µM (inactive) | 3.61 µM (inactive) | 34.7 µM (inactive) | > 61.7 µM (inactive) | 51.3 µM (inactive) | 17 µM (inactive) | 15.8 µM (inactive) | 28.6 µM (inactive) | 8.43 µM (inactive) | 29.3 µM (inactive) | > 58.1 µM (inactive)
5 | CCC(C)C1=C(OC(C)=O)[N+]2([O-])Oc3ccc(-c4c(OC(C)=O)c(OC(C)=O)c(-c5ccc(OC(C)=O)cc5)c(OC(C)=O)c4OC(C)=O)cc3OC2(C(C)CC)C(=O)N1OC(C)=O (stereo not given) | 20.5 µM (inactive) | 9.62 µM (inactive) | 24 µM (inactive) | 18.7 µM (inactive) | 30.1 µM (inactive) | 16.1 µM (inactive) | 22.5 | 18 µM (inactive) | 23.8 µM (inactive) | 19.3 µM (inactive) | 9.57 µM (inactive) | 40.3 µM (inactive) | 21.1 µM (inactive) | 37.7 µM (inactive) | 22.4 µM (inactive) | 10.9 µM (inactive) | 14.8 µM (inactive) | 17.2 µM (inactive) | 30.6 µM (inactive) | > 50 µM (inactive)
6 | O=S1(=O)OCCOS(=O)(=O)C1(F)Cc1ccccc1 | > 100 µM (inactive) | > 100 µM (inactive) | > 100 µM (inactive) | > 100 µM (inactive) | > 100 µM (inactive) | > 100 µM (inactive) | > 100 | > 100 µM (inactive) | > 100 µM (inactive) | > 100 µM (inactive) | > 100 µM (inactive) | > 100 µM (inactive) | > 100 µM (inactive) | > 100 µM (inactive) | > 100 µM (inactive) | > 100 µM (inactive) | > 100 µM (inactive) | > 100 µM (inactive) | > 100 µM (inactive) | > 100 µM (inactive)
7 | CCC1(CC)C(=O)CC[C@@]2(C)C1=CC[C@H]1[C@@H]3CC[C@H](O)[C@@]3(C)CC[C@@H]12 | 19.1 µM (inactive) | 22.2 µM (inactive) | 53.3 µM (inactive) | 36.1 µM (inactive) | 24 µM (inactive) | 28.5 µM (inactive) | 46.9 | 13.5 µM (inactive) | 18.1 µM (inactive) | 33.8 µM (inactive) | 19.6 µM (inactive) | 47.9 µM (inactive) | 29 µM (inactive) | 19.9 µM (inactive) | 23.5 µM (inactive) | 28.9 µM (inactive) | 35.6 µM (inactive) | 19.4 µM (inactive) | 18.4 µM (inactive) | 23.8 µM (inactive)
8 | CCOC(=O)c1cc(Br)c(-c2onc(C)c2Br)n1C | 49.7 µM (inactive) | 18.9 µM (inactive) | 19.4 µM (inactive) | 52.8 µM (inactive) | 46.2 µM (inactive) | 6.08 µM (inactive) | 37.6 | 23.3 µM (inactive) | 43.1 µM (inactive) | 93.5 µM (inactive) | 30.7 µM (inactive) | 24.2 µM (inactive) | 55.2 µM (inactive) | 66.8 µM (inactive) | 63.4 µM (inactive) | 15.6 µM (inactive) | 18.1 µM (inactive) | 34 µM (inactive) | 45.9 µM (inactive) | 45.2 µM (inactive)
9 | C=CCn1c(-c2ccc(Cl)cc2Cl)cs/c1=N\c1c(C)n(C)n(-c2ccccc2)c1=O | 15.8 µM (inactive) | 7.24 µM (inactive) | 16.4 µM (inactive) | 15.9 µM (inactive) | 11.1 µM (inactive) | 3.54 µM (inactive) | 13.7 | 9.44 µM (inactive) | 12.5 µM (inactive) | 13.2 µM (inactive) | 6.92 µM (inactive) | 13.8 µM (inactive) | 15.7 µM (inactive) | 12.3 µM (inactive) | 5.81 µM (inactive) | 3.12 µM (inactive) | 8.47 µM (inactive) | 9.53 µM (inactive) | 11.5 µM (inactive) | 12.4 µM (inactive)
10 | CCOc1ccc(/N=N/c2ccc3cc(/C(C)=N/NC(=O)/C(C#N)=C\c4ccc(N(CCC#N)CCC#N)cc4)c(=O)oc3c2)cc1 | > 10 µM (inactive) | > 10 µM (inactive) | > 10 µM (inactive) | > 10 µM (inactive) | > 10 µM (inactive) | > 10 µM (inactive) | > 10 | > 10 µM (inactive) | > 10 µM (inactive) | > 10 µM (inactive) | > 10 µM (inactive) | > 10 µM (inactive) | > 10 µM (inactive) | > 10 µM (inactive) | > 10 µM (inactive) | > 10 µM (inactive) | 1.86 µM (inactive) | > 10 µM (inactive) | > 10 µM (inactive) | > 10 µM (inactive)
11 | Cc1ccccc1N1C(N)=C(C#N)C(C#N)(C#N)C1c1ccccc1 (stereo not given) | 16.3 µM (inactive) | 18 µM (inactive) | 21.9 µM (inactive) | 16.4 µM (inactive) | 20 µM (inactive) | 17.9 µM (inactive) | 16.6 | 26.1 µM (inactive) | 16.7 µM (inactive) | 16.7 µM (inactive) | 14.7 µM (inactive) | 13.3 µM (inactive) | 20.7 µM (inactive) | 14.6 µM (inactive) | 20.9 µM (inactive) | 12.5 µM (inactive) | 26 µM (inactive) | 17.7 µM (inactive) | 16.8 µM (inactive) | 16.6 µM (inactive)
12 | CCN(CC)CCNc1c2ccccc2nc2cccc([N+](=O)[O-])c12 | 0.0116 µM (active) | 0.00676 µM (active) | 0.0101 µM (active) | 0.00953 µM (active) | 0.0186 µM (active) | 0.0177 µM (active) | 0.00701 | 0.00826 µM (active) | 0.0123 µM (active) | 0.0031 µM (active) | 0.0462 µM (active) | 0.00136 µM (active) | 0.0179 µM (active) | 0.0288 µM (active) | 0.0177 µM (active) | 0.0101 µM (active) | 0.0176 µM (active) | 0.0225 µM (active) | 0.0198 µM (active) | 0.00782 µM (active)
13 | O=C(c1ccc2ccccc2c1)N(Cc1cccnc1)C(=S)N(Cc1cccnc1)C(=O)c1ccc2ccccc2c1 | 49.5 µM (inactive) | 35.7 µM (inactive) | 55 µM (inactive) | > 100 µM (inactive) | 37.2 µM (inactive) | 22.8 µM (inactive) | 32.1 | 39.3 µM (inactive) | 19 µM (inactive) | 27 µM (inactive) | 60.7 µM (inactive) | 23.2 µM (inactive) | 61.2 µM (inactive) | 31.1 µM (inactive) | 25.7 µM (inactive) | 26.3 µM (inactive) | 24.9 µM (inactive) | 19 µM (inactive) | 28.6 µM (inactive) | 32.9 µM (inactive)
14 | C[C@@H]1CC(=O)[C@@]2(C)[C@](O)(CCC3O[C@]32C)[C@@]12CC(c1ccoc1)OC2=O (stereo not given in full) | 37.4 µM (inactive) | 34.5 µM (inactive) | > 100 µM (inactive) | 50.7 µM (inactive) | > 100 µM (inactive) | > 100 µM (inactive) | 37.8 | > 100 µM (inactive) | > 100 µM (inactive) | > 100 µM (inactive) | 20.5 µM (inactive) | > 100 µM (inactive) | > 100 µM (inactive) | > 100 µM (inactive) | > 100 µM (inactive) | > 100 µM (inactive) | 23.7 µM (inactive) | 35.2 µM (inactive) | > 100 µM (inactive) | 94.4 µM (inactive)
